The text below walks through data of US20240156901A1, “GAL3BP POLYPEPTIDE COMPOSITIONS AND METHODS FOR TREATMENT OF CANCER AND DETERMINING TREATMENT RESPONSIVENESS” (UNIVERSITY OF PITTSBURGH-OF THE COMMONWEALTH SYSTEM OF …, priority 2021, published 2024).

Test [1] has as its system GL261-CHI3L1 glioma. Briefly: Flow cytometry of immune cell populations in GL261-CHI3L1 glioma after peptide treatment. The test is classed as in vivo, mouse. On the procedure:
Mice with neurological deficits or moribund appearance were sacrificed. Tumors were separated and homogenized for 15 min at 37° C. in Collagenase IV Cocktail (3.2 mg/mL collagenase type IV, 2 mg/mL soybean trypsin inhibitor, and 1.0 mg/mL deoxyribonuclease I; Worthington Biochemical). Red blood cells were lysed using ACK lysing buffer (Gibco). Cell suspensions were filtered through 70-μm strainers, centrifuged, and resuspended in cold FACS buffer (DPBS with 1% BSA) for further analysis.
About 3×10^6 cells were used for each staining panel. Cells were incubated with 1.0 μg of TruStain fcX (BioLegend) for 10 min on ice to block Fc receptors, followed by staining with the combination of indicated antibodies. After staining, cells were washed with FACS buffer three times and incubated with Fixation Buffer (BioLegend) at RT for 20 min. Cells were washed with FACS buffer, resuspended in Cyto-Last Buffer (BioLegend), and analyzed by either a BD LSRFortessa or BD FACSAria II SORP. For CyTOF, samples were prepared as described above for flow cytometry. Three pairs of samples (scrambled shRNA vs Chi3l1 KD) with similar tumor sizes were chosen and the staining procedure was followed as previously described (Mitsialis V, et al., 2020). The samples were analyzed on a Helios2 CyTOF system (Fluidigm) at the Longwood Medical Area CyTOF Core. Additional information about flow cytometry antibodies is provided in the Supplementary Material and Methods section.
Background: In flow cytometry, cells or beads pass a laser one at a time.

In test [2] the test system is bone-marrow derived macrophages (BMDMs). Nature of the test: Scratch-wound healing assay, BMDM migration. The test is classed as cell-based, mouse. On the procedure: (§1) BMDMs were isolated from male and female C57BL/6 mice as previously described (Ying W et al., 2013). Briefly, femur bones were isolated from mice, and IMDM (ATCC) supplemented with 10% FBS and P/S was used to flush the bone marrow into a petri dish. After 4-6-hour incubation, the floating cells were collected and resuspended in the medium with 20 ng/mL M-CSF (PrproTech). On day 6, the fully differentiated cells were designated as an M0 state. To induce BMDM polarization toward an M1 state, 100 ng/mL LPS (Invitrogen) and 50 ng/mL IFNγ (PrproTech) were added to the M0 cells for 24 hours. To induce BMDM polarization toward an M2 state, 20 ng/mL IL-4 (PrproTech) was added to the M0 cells for 72 hours.
BMDM were polarized to the indicated status (M0, M1, or M2) and seeded in 12-well plates at 80-90% confluency. The cells were switched to the medium without FBS for 6 hours of starvation. Scratches were made using pipettor tips and fresh IMDM with indicated recombinant proteins and/or peptides were added. Images of the scratches were captured at indicated times. For the SIM-A9 scratch-wound healing assay, 12-well plates were coated with 10 μg/mL fibronectin (Sigma-Aldrich) at 37° C. overnight before seeding cells.

Test [3] concerns QPP7 glioma. Nature of the test: Peptide treatment of orthotopic syngeneic QPP7 glioma (MRI, survival). As to conditions: orthotopic syngeneic mice bearing QPP7 glioma; local delivery into the brain; vs SCP.
Protocol: (§2) Male and female ICR SCID and C57BL/6 mice (4-6 weeks of age) were purchased from Taconic Biosciences and The Jackson Laboratory, respectively. The intracranial xenograft tumor models were established as previously described (Hu B et al., 2016). Cells in 5 μL DPBS were injected at the following numbers: TS543 vector control or CHI3L1 overexpression (OE), 1×10^4 cells; QPP7 scrambled control or CHI3L1 knockdown (KD), 1×10^5 cells; and GL261 vector control or CHI3L1 OE, 1×10^5 cells. […] For mice treated with peptides, 5 uL of 20 uM SCP or GMP was delivered into the mouse brain every 4 days with a total of seven times.
(§3) MRI and bioluminescent imaging of mice were performed at Rangos Research Center Animal Imaging Core. The tumor size of mice detected by MRI was analyzed with ITK-SNAP.
For intracranial xenograft tumor models treated with peptides, mice were implanted with a guide screw prior to intracranial injection. […]
(§4) All mice received general inhalation anesthesia with Isoflurane for in vivo brain imaging. […] Depth of anesthesia was monitored by toe reflex (extension of limbs, spine positioning) and respiration rate. […] Respiration was monitored using a pneumatic sensor placed between the animal bed and the mouse's abdomen, rectal temperature was measured with a fiberoptic sensor, and core temperature was maintained at 36.8±0.2° C. with a feedback-controlled warm air source (SA Instruments). […]
The subject of test [4] is GL261-CHI3L1 orthotopic tumors. Nature of the test: Peptide treatment of GL261-CHI3L1 orthotopic tumors (MRI, survival).
Protocol: as §2, §3
For intracranial xenograft tumor models treated with peptides, mice were implanted with a guide screw prior to intracranial injection. To install the screw, mice were anesthetized by intraperitoneal (IP) injection with ketamine/xylazine solution (1.75 mL of 100 mg/mL ketamine and 0.25 mL of 100 mg/mL xylazine in 8 mL sterile water) at a dosage of 100 μL/20 g body weight. The screw was covered by sealing the skin, and mice were allowed to recover for one week before intracranial implantation. GL261 cells overexpressing CHI3L1 (1×10^5) were injected in 5 μL of DPBS containing 20 μM of either scrambled control peptide (SCP) or Gal3BP mimetic peptide (GMP). SCP (20 μM) or GMP (20 μM) was subsequently given once every 3 days with a total of seven times by intracranial injection via the guide screw.
as §4
Test [5] addresses T1, binding of CHI3L1 and Gal3 (Homo sapiens, UniProt P36222).
T1 construct: endogenous in cells; host or cells: THP-1 cells
Nature of the test: Co-IP with Gal3 antibody in THP-1 cells treated with peptides. To be noted: 20 μM for 24 hours.
Protocol: TS603 cells overexpressing CHI3L1 with V5 tag (TS603 CHI3L1_V5_OE) or THP-1 cells treated with the peptides were collected and protein-protein interaction was crosslinked with 2 mM Dithiobis (succinimidyl propionate, DSP). Membrane proteins were extracted with the Membrane Protein Extraction Kit (ThermoFisher, Cat #89842) and ˜500 μg of protein was used for Co-IP assay by the Co-Immunoprecipitation Kit (ThermoFisher, Cat #26149).
(§5) For in vivo THP-1 cell or in vitro recombinant protein Co-IP experiments, additional following antibodies were used: Mouse anti-CHI3L1 (Santa Cruz Biotechnology, Cat #SC-393590), Rat anti-Galectin-3 (Santa Cruz Biotechnology, Cat #SC-23938), anti-Galectin-3BP (Santa Cruz Biotechnology, Cat #SC-374541), Rabbit anti-CHI3L1 (Cell Signaling Technology, Cat #47066), and Rat IgG (BioXCell, Cat #BE0090).

Test [6] has as its system Gal3/CHI3L1. Nature of the test: Inhibition of Gal3/CHI3L1 by Gal3BP polypeptides. As to conditions: SEQ ID NO: 4 as compared to SEQ ID NO: 5.
For test [7], the system named is Arg1, Ym1, Ccl2, Il10 gene expression. Nature of the test: qRT-PCR of immune suppression genes in M0 BMDMs. The test is classed as cell-based, mouse. To be noted: rCHI3L1 2.5 μg/mL, rGal3 2.5 μg/mL, rGal3BP 5.0 μg/mL, 24 hours. On the procedure: as §1
RNA was extracted and cDNA was synthesized as described previously (Hu B et al., 2016). qRT-PCR was performed using PowerSYBR Green PCR Master Mix (Applied Biosystems) and detected with a StepOnePlus Real-Time PCR System (Applied Biosystems). Each reaction was performed in duplicate or triplicate. The relative expression of genes was normalized to human RPL39 or mouse 18S ribosomal RNA. For RNA-seq experiments, cells from intracranial xenograft tumors were isolated and incubated with antibodies for immune cell types. Macrophages were isolated by FACS and RNA was then isolated and sent to Health Sciences Sequencing Core at UPMC Children's Hospital of Pittsburgh for RNA-seq. […]

Test [8] concerns PI3K/AKT/mTOR pathway. Nature of the test: Immunoblot of PI3K/AKT/mTOR signaling and transcription factors in M0 BMDMs. The test is classed as cell-based, mouse. As to conditions: 30 minutes. The method, then: Cells were lysed on ice using RIPA buffer (Millipore) supplemented with protease and phosphatase inhibitors (Roche). The protein concentration was determined by the BCA method and 15˜30 ug of total proteins were loaded and analyzed by Western blotting with indicated antibodies. For IHC staining, brain tissues were fixed in 10% formalin overnight and embedded in paraffin. For IF staining, fresh brain tissues were immediately frozen in OCT on dry ice. IHC and IF staining were performed as we described previously (Hu B et al., 2016). Additional information about antibodies is provided in the Supplementary Material and Methods section
Immunoblotting (IB), Immunohistochemistry (IHC), and Immunofluorescence (IF). […]

The test system of test [9] is bone-marrow derived macrophages (BMDMs). Nature of the test: Transwell migration assay, BMDM migration. To be noted: rCHI3L1 2.5 μg/mL, rGal3BP 5.0 μg/mL. In kind it is cell-based, mouse. On the procedure:
as §1
Polarized BMDMs were starved by removing FBS for 6 hours. Cells were collected and 2×10^5 cells in 200 μL of IMDM were added into each transwell insert (Millipore, Cat #MCMP24H48). 700 μL of IMDM containing 2% FBS and the indicated recombinant proteins was added to the bottom of the plates. After 14-hour incubation, transwell inserts were stained with HEMA 3 Stain Set (Fisher Scientific). Insert membranes were separated and mounted on glass slides with CYTOSEAL XYL (ThermoFisher) and images were taken by an inverted microscope (Leica DM 2500). For the SIM-A9 cells, the inserts were coated with 10 μg/mL fibronectin overnight in advance of seeding cells.

Test [10] addresses T2, Gal3 and CHI3L1 protein binding (Homo sapiens, UniProt P36222).
T2 construct: purchased R&D Systems 2599-CH-050 (CHI3L1); 8259-GA-050 (Galectin-3)
Nature of the test: In vitro recombinant protein Co-IP competition (rGal3 + rCHI3L1 + increasing rGal3BP). As to conditions: 200 ng rGal3+200 ng rCHI3L1; rGal3BP 0-800 ng/sample; with or without TD139.
Description: as §5

[11] abbreviates: GL261-CHI3L1 tumors, GMP in contrast to SCP.
The mark [12] stands for this setting: GMP-treated vs SCP-treated tumors, GL261-CHI3L1 model.

T2 sequence (P36222 22-383): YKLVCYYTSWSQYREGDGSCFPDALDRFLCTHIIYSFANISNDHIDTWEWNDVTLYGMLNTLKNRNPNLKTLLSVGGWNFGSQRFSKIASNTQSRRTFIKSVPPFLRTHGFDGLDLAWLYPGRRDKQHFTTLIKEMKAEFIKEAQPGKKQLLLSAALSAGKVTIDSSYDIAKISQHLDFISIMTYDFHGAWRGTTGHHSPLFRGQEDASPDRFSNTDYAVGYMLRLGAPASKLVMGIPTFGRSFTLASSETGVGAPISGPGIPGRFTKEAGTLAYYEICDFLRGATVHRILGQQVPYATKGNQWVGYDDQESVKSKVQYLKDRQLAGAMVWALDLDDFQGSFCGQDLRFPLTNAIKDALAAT
T1 sequence (P36222 22-383): as above

As for TLDLSRELSEALGQI [GMP], in test [1] (setting [11]), the “CD8+ cells” value is reported as “significantly increased” and the “T cells (CD3+)” value is “significantly increased”. Besides, in test [1] (GMP treatment), the “PD-L1 expression in CD45+, CD8+ and CD4+ cells” value is given as “only a decreasing trend”; the “PD-L1 expression in glioma cells” value is “significantly decreased”. Further, in [1] (GMP vs SCP), the “CTLA-4 level in CD4+ T cells” value is “a trend of elevated levels” and the “PD-1 level in CD4+ T cells” value is recorded as “a trend of elevated levels”. Further, in test [1] (setting [12]), the “CTLA-4 expression in CD8+ T cells” value is given as “significantly upregulated” and the “PD-1 expression in CD8+ T cells” value is on record as “significantly upregulated”. Further, the “PD-L1 expression in CD45+, CD8+ immune cells, and glioma cells” value in test [1] (preclinical mouse models, as restated in Example 8) is given as “significantly decrease”. For the same molecule, the “CD4+ cell population” value in [1] (tumors of C57BL/6 mice bearing GL261-CHI3L1) stood at 41.9±4.5%. Besides, in test [1] (tumors of C57BL/6 mice bearing GL261-CHI3L1, mean±SEM, P=0.0536), the “M2-like TAMs” value was determined as 42.8±3.8%. In addition, in [1] (tumors of C57BL/6 mice bearing GL261-CHI3L1, mean±SEM, P=0.0719), the “M1-like TAMs” value was 49.5±4.0%. Also, the “rCHI3L1-induced BMDM migration, dose dependence” value in test [2] (M2 BMDMs, rCHI3L1 0.6 μg/mL, different concentrations of peptide, 6 hours) was “inhibits rCHI3L1-induced BMDM migration in a dose-dependent manner”. Moreover, in [2] (rCHI3L1 0.6 μg/mL, peptide 30 μM, compared with SCP), the “rCHI3L1-promoted M2 BMDM migration” value is on record as “significantly inhibited”. In test [2] (rCHI3L1 2.5 μg/mL, rGal3 2.5 μg/mL, peptide 30 μM, in contrast to SCP), the “rCHI3L1+rGal3-induced M0 BMDM migration” value is recorded as “attenuated”. In addition, in test [3], the mouse survival entry is on record as “increased mouse survival” and the tumor size result is listed as “decreased tumor size”. Moreover, in test [4] (C57BL/6 mice bearing GL261-CHI3L1, GMP compared to SCP), the “tumor growth (T2 MRI)” value is “reduced tumor growth”. For the same molecule, the median survival in [4] (C57BL/6 mice bearing GL261-CHI3L1 orthotopic tumors, 20 μM peptide into brain tumor via guide screw) was 36 days. Besides, in test [5], the “binding of CHI3L1 and Gal3 (Co-IP)” value is “decreasing binding of CHI3L1 and Gal3”. Further, the “inhibition of Gal3/CHI3L1” value in test [6] was “increased inhibition”.

B1: rGal3BP: recombinant Gal3BP protein; Galectin-3-binding protein, monomer PDB 6GFB used for docking (protein)
chain: VNDGDMRLADGGATNQGRVEIFYRGQWGTVCDNLWDLTDASVVCRALGFENATQALGRAAFGQGSGPIMLDEVQCTGTEASLADCKSLGWLKSNCRHERDAGVVCTNETRSTHTLDLSRELSEALGQIFDSQRGCDLSISVNVQGEDALGFCGHTVILTANLEAQALWKEPGSNVTMSVDAECVPMVRDLLRYFYSRRIDITLSSVKCFHKLASAYGARQLQGYCASLFAILLPQDPSFQMPLDLYAYAVATGDALLEKLCLQFLAWNFEALTQAEAWPSVPTDLLQLLLPRSDLAVPSELALLKAVDTWSWGERASHEEVEGLVEKIRFPMMLPEELFELQFNLSLYWSHEALFQKKTLQALEFHTVPFQLLARYKGLNLTEDTYKPRIYTSPTWSAFVTDSSWSARKSQLVYQSRRGPLVKYSSDYFQAPSDYRYYPYQSFQTPQHPSFLFQDKRVSWSLVYLPTIQSCWNYGFSCSSDELPVLGLTKSGGSDRTIAYENKALMLCEGLFVADVTDFEGWKAAIPSALDTNSSKSTSSFPCPAGHFNGFRTVIRPFYLTNSSGVD
For the molecule B1, the “expression of genes related to anti-inflammation (Arg1, Ym1, Ccl2, Il10)” value in test [7] is on record as “significantly inhibited”. Also, the “rCHI3L1-induced M2 BMDM migration” value in test [2] (rCHI3L1 2.5 μg/mL, rGal3BP 5.0 μg/mL, scratch-wound healing) is given as “significantly attenuated”; in test [9] it was “significantly attenuated”. In addition, the “levels of p-AKT (T473 and S308), p-S6, and p-mTOR” value in [8] is listed as “inhibited”. Besides, the “competition with Gal3 for binding CHI3L1 (Co-IP)” value in test [10] is recorded as “compete for the same binding site in CHI3L1”.
